The values that follow come from patent publication US4607010A, “Analytical process and means for measuring protease inhibitor capacity of serum” (priority 1984, dated 1986).

One experiment has as its system Chymotrypsin. The experiment in a line: Fixed time active-site titration of chymotrypsin with DPCF (fluoride electrode). Format: biochemical. The note with it: for % Active: active concentration as percentage of total mass; for F^-: pH 5.5, two hours, room temperature, mean of duplicates, blank 10.60. Here is the method:
(§1) Diphenylcarbamyl fluoride is a specific inactivator for both α-chymotrypsin and trypsin. […] The fixed time pseudoequilibrium can nevertheless be used for the assay of both enzymes since the number of moles of F^- released is stoichiometrically related to the active concentration of either two enzymes.
The reagent solutions were the same as described in Example 1. The assay procedure was however modified in the following manner. Into the plastic beaker, 4.8 ml of assay buffer, […] of either enzyme solution and 100 μl of DPFC solution were added. A blank was prepared in a similar manner by substituting 100 μl of a 2 mM HCl for the enzyme solution. All solutions were left at room temperature for two hours. Following that the F^- concentration was then measured by the fluoride electrode. […].
The difference in the relative-rates of F^- generation with chymotrypsin solution and chymotrypsin solution with serum was used to estimate serum protease inhibitor capacity. The assay buffer and DPCF solution were prepared as described in Example 5. Chymotrypsin solution 2.0 μM corresponding to 1.46 μM active mass was prepared by dilution of stock chymotrypsin solution as described in Example 1.

For a further experiment, the system named is Trypsin. Nature of the experiment: Fixed time active-site titration of trypsin with DPCF (fluoride electrode). The format is biochemical. The note with it: for % Active: active concentration as percentage of total mass; for F^-: pH 5.5, two hours, room temperature, mean of duplicates, blank 10.60. Here is the method: as §1
The reagent solutions were the same as described in Example 1. The assay procedure was however modified in the following manner. Into the plastic beaker, 4.8 ml of assay buffer, […] of either enzyme solution and 100 μl of DPFC solution were added. A blank was prepared in a similar manner by substituting 100 μl of a 2 mM HCl for the enzyme solution. All solutions were left at room temperature for two hours. Following that the F^- concentration was then measured by the fluoride electrode. […]

Where [1] appears, read: enzyme concentration 2 μM (mass).
The mark [2] stands for this setting: enzyme concentration 5 μM (mass).
[3] abbreviates: enzyme concentration 10 μM (mass).
Setting [4] is: mean over 2, 5 and 10 μM (mass).

For Chymotrypsin, in the experiment with Chymotrypsin (chymotrypsin solution 2.0 μM (mass)), the active concentration came out at 1.46 µM. Besides, the “% Active” value in the experiment on Chymotrypsin (setting [1]) was found to be 80.0%; in the experiment with Chymotrypsin (setting [2]), 72.2%; in the experiment on Chymotrypsin (setting [3]), 70.4%. Further, the “F^-” value in the experiment with Chymotrypsin (setting [1]) stood at 12.20 µM; in the experiment on Chymotrypsin (setting [2]), 14.21 µM; in the experiment on Chymotrypsin (setting [3]) it was 17.64 µM. In the experiment with Chymotrypsin (setting [4]), the “% Active Mean ± Stand. Dev.” value came to 74.2 ± 4.2%.

As to Trypsin, the “% Active” value in the experiment on Trypsin (setting [1]) was 77.5%; in the experiment on Trypsin (setting [2]), 69.4%; in the experiment on Trypsin (setting [3]), 65.7%. For the same substance, the “F^-” value with Trypsin (setting [1]) came out at 12.12 µM; with Trypsin (setting [2]) it was 14.00 µM; in the experiment with Trypsin (setting [3]) it was 17.12 µM. Moreover, in the experiment with Trypsin (setting [4]), the “% Active Mean ± Stand. Dev.” value is 70.9 ± 4.9%.
